According to US11459318B2, “Pesticidally active pyrrole derivatives” (Syngenta Participations AG, priority 2017, dated 2022):

Tests used:
Assay type in all cases: in vivo
[1] = tested on: Diabrotica balteata (Corn root worm); assay: Diabrotica balteata (Corn root worm), maize sprouts sprayed, L2 larvae mortality; conditions: 96 h, application rate of 200 ppm, L2 larvae on maize sprouts, assessed 4 days after infestation, read-out: control (mortality)
Procedure: Diabrotica balteata (Corn root worm):
Maize sprouts placed onto an agar layer in 24-well microtiter plates were treated with aqueous test solutions prepared from 10,000 ppm DMSO stock solutions by spraying. After drying, the plates were infested with L2 larvae (6 to 10 per well). The samples were assessed for mortality 4 days after infestation.

[2] = tested on: Spodoptera littoralis (Egyptian cotton leaf worm); assay: Spodoptera littoralis (Egyptian cotton leaf worm): Feeding/contact activity; conditions: foliar, 72 h, application rate of 200 ppm, L1 larvae on cotton leaf discs, assessed 3 days after infestation, read-out: control (mortality)
Procedure: Spodoptera littoralis (Egyptian cotton leaf worm): Feeding/contact activity Cotton leaf discs were placed onto agar in 24-well microtiter plates and sprayed with aqueous test solutions prepared from 10,000 ppm DMSO stock solutions. After drying the leaf discs were infested with five L1 larvae. The samples were assessed for mortality 3 days after infestation.

[3] = tested on: Myzus persicae (Green peach aphid); assay: Myzus persicae (Green peach aphid): Feeding/Contact activity; conditions: foliar, 144 h, application rate of 200 ppm, aphid population of mixed ages on sunflower leaf discs, assessed 6 days after infestation, read-out: control (mortality)
Procedure: Myzus persicae (Green peach aphid): Feeding/Contact activity Sunflower leaf discs were placed onto agar in a 24-well microtiter plate and sprayed with aqueous test solutions prepared from 10,000 ppm DMSO stock solutions. After drying, the leaf discs were infested with an aphid population of mixed ages. The samples were assessed for mortality 6 days after infestation.

[4] = tested on: Euschistus heros (Neotropical Brown Stink Bug); assay: Euschistus heros (Neotropical Brown Stink Bug): Feeding/contact activity; conditions: 120 h, application rate of 200 ppm, N2 nymphs on soybean leaves, assessed 5 days after infestation, read-out: control (mortality)
Procedure: Euschistus heros (Neotropical Brown Stink Bug): Feeding/contact activity Soybean leaves on agar in 24-well microtiter plates were sprayed with aqueous test solutions prepared from 10,000 ppm DMSO stock solutions. After drying the leaves were infested with N2 nymphs. The samples were assessed for mortality 5 days after infestation.

[5] = tested on: Tetranychus urticae (Two-spotted spider mite); assay: Tetranychus urticae (Two-spotted spider mite): Feeding/contact activity; conditions: foliar, 192 h, application rate of 200 ppm, mite population of mixed ages (mobile stages) on bean leaf discs, assessed 8 days after infestation, read-out: control (mortality)
Procedure: Tetranychus urticae (Two-spotted spider mite): Feeding/contact activity
Bean leaf discs on agar in 24-well microtiter plates were sprayed with aqueous test solutions prepared from 10,000 ppm DMSO stock solutions. After drying the leaf discs were infested with a mite population of mixed ages. The samples were assessed for mortality on mixed population (mobile stages) 8 days after infestation.

[6] = tested on: Plutella xylostella (Diamond back moth); assay: Plutella xylostella (Diamond back moth): Feeding/contact activity; conditions: 120 h, application rate of 200 ppm, L2 larvae on artificial diet, assessed 5 days after infestation, read-out: control (mortality)
Procedure: Plutella xylostella (Diamond back moth): Feeding/contact activity
24-well microtiter plates with artificial diet were treated with aqueous test solutions prepared from 10,000 ppm DMSO stock solutions by pipetting. After drying, the plates were infested with L2 larvae (10 to 15 per well). The samples were assessed for mortality 5 days after infestation.

[7] = tested on: Thrips tabaci (Onion Thrips); assay: Thrips tabaci (Onion Thrips): Feeding/Contact activity; conditions: foliar, 144 h, application rate of 200 ppm, thrips population of mixed ages on sunflower leaf discs, assessed 6 days after infestation, read-out: control (mortality)
Procedure: Thrips tabaci (Onion Thrips): Feeding/Contact activity
Sunflower leaf discs were placed on agar in 24-well microtiter plates and sprayed with aqueous test solutions prepared from 10,000 ppm DMSO stock solutions. After drying the leaf discs were infested with a thrips population of mixed ages. The samples were assessed for mortality 6 days after infestation.

Measured: mortality at 200 ppm

Cn1c(C(F)(C(F)(F)F)C(F)(F)F)cc(Br)c1-n1cc(-c2ccc(Cl)c(C(=O)NC3(C#N)CC3)c2)cn1 [Compound 2, 5-[1-[3-bromo-1-methyl-5-[1,2,2,2-tetrafluoro-1-(trifluoromethyl)ethyl]pyrrol-2-yl]pyrazol-4-yl]-2-chloro-N-(1-cyanocyclopropyl)benzamide]
≥ 80%: all assays above

Cn1c(C(F)(C(F)(F)F)C(F)(F)F)cc(Cl)c1-n1cc(-c2ccc(Cl)c(C(=O)NC3(C#N)CC3)c2)cn1 [Compound 9, 2-chloro-5-[1-[3-chloro-1-methyl-5-[1,2,2,2-tetrafluoro-1-(trifluoromethyl)ethyl]pyrrol-2-yl]pyrazol-4-yl]-N-(1-cyanocyclopropyl)benzamide]
≥ 80%: all assays above

Cn1c(C(F)(C(F)(F)F)C(F)(F)F)cc(C#N)c1-n1cc(-c2ccc(Cl)c(C(=O)NC3(C#N)CC3)c2)cn1 [Compound 10, 2-chloro-N-(1-cyanocyclopropyl)-5-[1-[3-cyano-1-methyl-5-[1,2,2,2-tetrafluoro-1-(trifluoromethyl)ethyl]pyrrol-2-yl]pyrazol-4-yl]benzamide]
≥ 80%: all assays above

N#CC1(NC(=O)c2cc(-c3cnn(-c4c(Br)cc(C(F)(C(F)(F)F)C(F)(F)F)n4CF)c3)ccc2Cl)CC1 [Compound 12, 5-[1-[3-bromo-1-(fluoromethyl)-5-[1,2,2,2-tetrafluoro-1-(trifluoromethyl)ethyl]pyrrol-2-yl]pyrazol-4-yl]-2-chloro-N-(1-cyanocyclopropyl)benzamide]
≥ 80%: all assays above

CCN(C(=O)c1cc(-c2cnn(-c3c(Br)cc(C(F)(C(F)(F)F)C(F)(F)F)n3C)c2)ccc1Cl)C1(C#N)CC1 [Compound 20, 5-[1-[3-bromo-1-methyl-5-[1,2,2,2-tetrafluoro-1-(trifluoromethyl)ethyl]pyrrol-2-yl]pyrazol-4-yl]-2-chloro-N-(1-cyanocyclopropyl)-N-ethyl-benzamide]
≥ 80%: all assays above

CN(C(=O)c1cc(-c2cnn(-c3c(Br)cc(C(F)(C(F)(F)F)C(F)(F)F)n3C)c2)ccc1Cl)C1(C#N)CC1 [Compound 21, 5-[1-[3-bromo-1-methyl-5-[1,2,2,2-tetrafluoro-1-(trifluoromethyl)ethyl]pyrrol-2-yl]pyrazol-4-yl]-2-chloro-N-(1-cyanocyclopropyl)-N-methyl-benzamide]
≥ 80%: all assays above

CC(C)n1c(C(F)(C(F)(F)F)C(F)(F)F)cc(Br)c1-n1cc(-c2ccc(Cl)c(C(=O)NC3(C#N)CC3)c2)cn1 [Compound 24, 5-[1-[3-bromo-1-isopropyl-5-[1,2,2,2-tetrafluoro-1-(trifluoromethyl)ethyl]pyrrol-2-yl]pyrazol-4-yl]-2-chloro-N-(1-cyanocyclopropyl)benzamide]
≥ 80%: all assays above

CC(C)(C)n1c(C(F)(C(F)(F)F)C(F)(F)F)cc(Br)c1-n1cc(-c2ccc(Cl)c(C(=O)NC3(C#N)CC3)c2)cn1 [Compound 25, 5-[1-[3-bromo-1-tert-butyl-5-[1,2,2,2-tetrafluoro-1-(trifluoromethyl)ethyl]pyrrol-2-yl]pyrazol-4-yl]-2-chloro-N-(1-cyanocyclopropyl)benzamide]
≥ 80%: all assays above

N#CC1(NC(=O)c2cc(-c3cnn(-c4c(Br)cc(C(F)(C(F)(F)F)C(F)(F)F)n4CC(F)(F)F)c3)ccc2Cl)CC1 [Compound 26, 5-[1-[3-bromo-5-[1,2,2,2-tetrafluoro-1-(trifluoromethyl)ethyl]-1-(2,2,2-trifluoroethyl)pyrrol-2-yl]pyrazol-4-yl]-2-chloro-N-(1-cyanocyclopropyl)benzamide]
≥ 80%: all assays above

Cn1c(C(F)(C(F)(F)F)C(F)(F)C(F)(F)F)cc(Br)c1-n1cc(-c2ccc(Cl)c(C(=O)NC3(C#N)CC3)c2)cn1 (centres unmarked) [Compound 27, 5-[1-[3-bromo-5-[1,2,2,3,3,3-hexafluoro-1-(trifluoromethyl)propyl]-1-methyl-pyrrol-2-yl]pyrazol-4-yl]-2-chloro-N-(1-cyanocyclopropyl)benzamide]
≥ 80%: all assays above

Cn1c(-n2cc(-c3ccc(Cl)c(C(=O)NC4(C#N)CC4)c3)cn2)ccc1C(F)(C(F)(F)F)C(F)(F)C(F)(F)F (centres unmarked) [Compound 28, 2-chloro-N-(1-cyanocyclopropyl)-5-[1-[5-[1,2,2,3,3,3-hexafluoro-1-(trifluoromethyl)propyl]-1-methyl-pyrrol-2-yl]pyrazol-4-yl]benzamide]
≥ 80%: all assays above
